# Read-outs that look alike come from different tables or passages of the source.
# Legend:
# OBP6 [1] = target: T1, OBP6 (Acyrthosiphon pisum, UniProt A0A8R1TDN2); assay: 1-NPN fluorescence competitive binding assay, OBP6
# Method: (§1) All fluorescent measurements were undertaken using a Perkin-Elmer LS50B fluorescence spectrophotometer, using a 2 mL quartz cuvette, and the settings described below in Table 13, unless otherwise stated. Spectra were recorded using FL WinLab software.
# (§2) Saturation of OBPs with fluorescent probe and 1-NPN (Sigma-Aldrich) was initially measured by titrating a 2 μM protein sample (2 mL in 25 mM Tris-HCl) with aliquots of 1 mM ligand (Sigma-Aldrich) in methanol to final concentrations of 1-16 μM. The fluorescence intensity at […] was recorded.
# (§3) The competitive binding of ligands was measured by observing the intrinsic fluorescence of tryptophan. Titrations were performed with aliquots of 1 mM ligand in methanol to final concentrations of 1-20 μM, either after the addition of fluorescent probe to a final concentration of 1 μM or in the absence of fluorescent probe.
# (§4) To generate KD values, relative fluorescence intensity was plotted against the concentration of ligand as a binding curve. KD values were generated in GraphPad Prism 7 using a non-linear regression and the inbuilt equation: […]
# OBP6 [2] = target: T1, OBP6; assay: Fluorescent probe-free (intrinsic tryptophan fluorescence) binding assay, OBP6
# Method: as §1, §3, §4
# OBP9 = OBP9 (Acyrthosiphon pisum, UniProt A0A8R1TD77); assay: 1-NPN fluorescence competitive binding assay, OBP9
# Method: as §1, §2, §3, §4
# [3] = OBP6, absence of fluorescent probe, non-linear regression, ± error, read-out: OBP6 Fluorescent Probe-Free Assay KD
# [4] = OBP6 with 1-NPN fluorescent probe, non-linear regression, ± error, read-out: OBP6 1-NPN Assay KD
# [5] = OBP9 with 1-NPN fluorescent probe, non-linear regression, ± error, read-out: OBP9 1-NPN Assay KD
# T1 sequence (A0A8R1TDN2 1-160): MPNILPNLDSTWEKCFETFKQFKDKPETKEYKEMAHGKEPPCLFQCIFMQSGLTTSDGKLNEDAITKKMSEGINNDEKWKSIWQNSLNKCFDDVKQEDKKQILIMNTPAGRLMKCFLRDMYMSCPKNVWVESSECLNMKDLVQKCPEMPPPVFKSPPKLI
# OBP9, sequence (A0A8R1TD77 1-165): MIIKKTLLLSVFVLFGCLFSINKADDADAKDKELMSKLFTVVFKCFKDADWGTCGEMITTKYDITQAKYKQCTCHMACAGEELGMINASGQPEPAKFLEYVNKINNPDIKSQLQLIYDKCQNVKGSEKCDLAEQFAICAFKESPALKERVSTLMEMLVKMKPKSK
SMILES,Kd (OBP6 [2]; [3]),Kd (OBP6 [1]; [4]),Kd (OBP6 [1]),Kd (OBP9; [5]),Kd (OBP6 [2]),Kd (OBP9)
C=CC(C)(O)CCC=C(C)C (racemic) [(R/S)-linalool],–,–,8.95 ± 3.71 µM,–,–,–
"CC1=CO[C@@H](O)[C@H]2[C@@H]1CC[C@@H]2C [Compound A, (1R,4aS,7S,7aR)-4,7-dimethyl-1,4a,5,6,7,7a-hexahydrocyclopenta[c]pyran-1-ol]",12.7 ± 2.31 µM,2.62 ± 0.63 µM,–,5.74 ± 1.71 µM,–,–
"CC1=COC(=O)[C@H]2[C@@H]1CC[C@@H]2C [Compound B, (4aS,7S,7aR)-4,7-dimethyl-5,6,7,7a-tetrahydrocyclopenta[c]pyran-1(4aH)-one]",1.9 ± 0.35 µM,1.3 ± 0.6 µM,–,6.49 ± 1.58 µM,–,–
"CC1=COC(=O)[C@H]2[C@H](C)CC[C@@H]12 [Compound D, (4aR,7R,7aS)-4,7-dimethyl-5,6,7,7a-tetrahydrocyclopenta[c]pyran-1(4aH)-one]",–,–,4.37 ± 0.81 µM,–,12 ± 4.24 µM,9.68 ± 4.57 µM

# Now from value to compound, other results behind:
Kd (OBP6 [2]; [3]),Kd (OBP6 [1]; [4]),SMILES,Kd (OBP6 [1]),Kd (OBP9; [5]),Kd (OBP6 [2]),Kd (OBP9)
34.5 ± 10.9 µM,10.1 ± 2.88 µM,C=CC(=C)CC/C=C(\C)CCC=C(C)C [(E)-β-farnesene],–,8.32 ± 2.67 µM,–,–
8.46 ± 1.62 µM,2.65 ± 0.8 µM,"CC1=CO[C@H](O)[C@H]2[C@H](C)CC[C@@H]12 [Compound C, (1S,4aR,7R,7aS)-4,7-dimethyl-1,4a,5,6,7,7a-hexahydrocyclopenta[c]pyran-1-ol]",–,6.29 ± 1.99 µM,–,–

# Source: US20230312476A1, “COMPOUNDS WITH SEMIOCHEMICAL PROPERTIES AND BIOSENSORS” (ROTHAMSTED RESEARCH LIMITED, priority 2020, published 2023)
